From PubChem BioAssay (NCI)
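Five concentrations, 48 hours, 96-well plates. GI50 = concentration required for 50% inhibition of growth. TGI denotes the concentration required for complete inhibition of growth.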

Key:
Test in all cases: NCI-60 cell line screen, 48 h
[1] = tested on: ACHN renal
[2] = tested on: RPMI-8226 leukemia
[3] = tested on: COLO 205 colon
[4] = tested on: 786-0 renal
[5] = tested on: MOLT-4 leukemia
[6] = tested on: SN12C renal
[7] = tested on: OVCAR-5 ovarian
[8] = tested on: NCI-H23 lung
[9] = tested on: HCT-116 colon
[10] = tested on: SK-OV-3 ovarian

Structure (SMILES)	GI50 [1]	TGI [1]	GI50 [2]	TGI [2]	GI50 [3]	TGI [3]	GI50 [4]	TGI [4]	GI50 [5]	TGI [5]	GI50 [6]	TGI [6]	GI50 [7]	TGI [7]	GI50 [8]	TGI [8]	GI50 [9]	TGI [9]	GI50 [10]	TGI [10]
C#Cc1c(I)n(C2OC(CO[Si](C)(C)C(C)(C)C)C3OC(C)(C)OC32)c(=O)[nH]c1=O (centres undefined)	17.8 µM	39.7 µM	3.63 µM	13.7 µM	2.24 µM	4.8 µM	14.7 µM	29.4 µM	2.17 µM	6.69 µM	18.5 µM	37.6 µM	20.4 µM	37 µM	18.9 µM	39.6 µM	2.78 µM	10.1 µM	33.2 µM	> 100 µM
O=C(Nc1c(Cl)cc([N+](=O)[O-])cc1Cl)C(=O)C(C1OC(=O)c2ccccc21)[N+](=O)[O-] (centres undefined)		> 100 µM		> 100 µM		> 100 µM		> 100 µM		> 100 µM		> 100 µM		> 100 µM		> 100 µM		> 100 µM		> 100 µM
O=C(/C=C\c1ccc(NCc2ccc(C(=O)O)cc2)cc1)CCl	16.1 µM	31.6 µM	9.07 µM	35.3 µM	14.2 µM	29.4 µM	10.2 µM	23.9 µM	4.45 µM	26.4 µM	11.2 µM	23.7 µM	17.8 µM	34.5 µM	15.5 µM	31 µM	2.5 µM	10.3 µM	15.1 µM	28.8 µM
COc1ccc(CC2NCCc3cc(OC)c(OC)cc32)cc1Br (centres undefined)		> 100 µM		50.2 µM		32.6 µM		> 100 µM		73.3 µM		> 100 µM		> 77.7 µM		85.7 µM		36.9 µM		> 100 µM
CC(C)(C[C@H]1CN(S(=O)(=O)c2cccc(C(F)(F)F)c2)c2cc(-c3cc(F)cc(OC(F)F)c3)ccc2O1)C(=O)O	11.1 µM	23.1 µM	3.45 µM	17.6 µM	11.3 µM	32.7 µM	6.98 µM	20.7 µM	5.88 µM	29.7 µM	11.3 µM	28 µM	12.6 µM	25.9 µM	9.4 µM	26.3 µM	4.01 µM	15.8 µM	13.2 µM	27.4 µM
COc1cc(C(=O)c2cc(C)c3[nH]c4ccc(C)cc4c3c2C)cc(OC)c1OC	< 0.01 µM	> 100 µM	< 0.01 µM	> 100 µM	< 0.01 µM	0.0369 µM	< 0.01 µM	3.17 µM	< 0.01 µM	> 100 µM	< 0.01 µM	> 100 µM	< 0.01 µM	> 100 µM	< 0.01 µM	> 100 µM	< 0.01 µM		< 0.0307 µM	> 100 µM
CCSc1nc(SCC)c2cn[nH]c2n1	44.3 µM	> 100 µM	40.2 µM	> 100 µM	34.4 µM	> 100 µM	> 100 µM	> 100 µM	> 100 µM	> 100 µM	47.7 µM	> 100 µM	69.1 µM	> 100 µM	> 100 µM	> 100 µM	36.6 µM	> 100 µM	39 µM	> 100 µM
CCOC(=O)c1ccc(C)c(N=NN(C)C)c1		> 100 µM		> 100 µM		> 100 µM		> 100 µM		> 100 µM		> 100 µM		> 100 µM		> 100 µM		> 100 µM		> 100 µM
O=C(c1ccccc1)C1OC12C(=O)Nc1ccccc12 (centres undefined)		> 100 µM		84.9 µM		34.5 µM		> 100 µM		34.1 µM		> 100 µM		> 100 µM		89.4 µM		> 100 µM		> 100 µM
CC/C=C\C[C@H]1C/C=C2/C(=O)C=C[C@@H]2C/C=C\CCCC(=O)O1	0.197 µM	0.393 µM	0.352 µM	4.03 µM	0.708 µM	2.64 µM	0.637 µM	1.89 µM	0.604 µM	5.21 µM	0.986 µM	4.34 µM	0.567 µM	2.53 µM	1.89 µM	5.03 µM	0.218 µM	0.511 µM	3.99 µM	12.9 µM
